One assay deals with IRAK4 enzyme (Homo sapiens (Human), UniProt Q9NWZ3). The assay is described as follows: biochemical. Format: biochemical. The settings on record: IRAK4 enzyme, TR-FRET, 500 μM ATP.
The test system of another assay is TNFα. As to the kind of experiment: cells. It is filed as cell-based, human. Particulars: Homo sapiens, Monocyte, LPS-stimulated human monocytes, TNFα content; read-out: EC50 TNF.

IC50 and EC50 data for 25 compounds are collected here from patent US10336762B2 (priority 2017, dated 2019).

Usually IC50 stands for the concentration needed to halve the response being measured. A high value points to weaker potency. In general, EC50 refers to the concentration needed to bring the measured effect to its halfway point.

IRAK4 enzyme, sequence (Q9NWZ3 whole entry): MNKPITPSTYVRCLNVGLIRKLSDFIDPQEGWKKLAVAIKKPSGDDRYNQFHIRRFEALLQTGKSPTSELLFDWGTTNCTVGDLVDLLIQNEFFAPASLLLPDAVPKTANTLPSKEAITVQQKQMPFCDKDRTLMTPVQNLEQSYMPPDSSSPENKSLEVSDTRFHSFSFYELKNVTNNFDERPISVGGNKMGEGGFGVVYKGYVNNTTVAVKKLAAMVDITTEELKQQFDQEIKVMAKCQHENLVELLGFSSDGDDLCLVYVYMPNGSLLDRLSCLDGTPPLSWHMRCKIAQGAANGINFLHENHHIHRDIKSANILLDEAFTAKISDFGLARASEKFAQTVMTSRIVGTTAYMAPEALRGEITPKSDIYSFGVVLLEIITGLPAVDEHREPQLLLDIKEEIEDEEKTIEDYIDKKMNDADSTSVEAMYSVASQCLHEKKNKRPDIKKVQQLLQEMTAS

At IRAK4 enzyme, `CNC(=O)O[C@H]1CC[C@@H](Nc2cc(-c3ccc4cc(C#N)cnn34)ncc2C(=O)NC[C@@H](F)C(C)(C)O)CC1` [Example 168, (1S,4s)-4-((2-(3-cyano-pyrrolo[1,2-b]pyridazin-7-yl)-5-(((R)-2-fluoro-3-hydroxy-3-methylbutyl)carbamoyl)pyridin-4-yl)amino)cyclohexyl methylcarbamate] registered a concentration for half-maximal inhibition (IC50) of 1000 nM. In addition, the 50% effective concentration (EC50) with TNFα was greater than 10000 nM.

Regarding `CC(C)(O)[C@H](F)CNC(=O)c1cnc(-c2ccc3cc(C#N)cnn23)cc1N[C@H]1C[C@H](O)C1` [Example 169, 6-(3-cyanopyrrolo[1,2-b]pyridazin-7-yl)-N-((R)-2-fluoro-3-hydroxy-3-methylbutyl)-4-(((1r,3R)-3-hydroxycyclobutyl)amino) nicotinamide], half-maximal inhibition on IRAK4 enzyme (IC50) was put at 183 nM. In addition, the concentration for a half-maximal effect (EC50) in the assay with TNFα is greater than 10000 nM.

Compound `CC(C)(O)[C@H](F)CNC(=O)c1cnc(-c2ccc3cc(C#N)cnn23)cc1NCc1cccnc1` [Example 170, (R)-6-(3-cyanopyrrolo[1,2-b]pyridazin-7-yl)-N-(2-fluoro-3-hydroxy-3-methylbutyl)-4-((pyridin-3-ylmethyl)amino) nicotinamide] came in with an IC50 against IRAK4 enzyme of 3 nM. Besides, in the assay on TNFα, the EC50 was 217 nM.

As for `CC(C)(O)[C@H](F)CNC(=O)c1cnc(-c2ccc3cc(C#N)cnn23)cc1NCc1ccccn1` [Example 171, (R)-6-(3-cyanopyrrolo[1,2-b]pyridazin-7-yl)-N-(2-fluoro-3-hydroxy-3-methylbutyl)-4-((pyridin-2-ylmethyl)amino) nicotinamide], inhibition on IRAK4 enzyme was half-maximal at 6 nM (IC50). Moreover, the EC50 in the assay with TNFα was 382 nM.

For `CC(C)(O)[C@H](F)CNC(=O)c1cnc(-c2ccc3cc(C#N)cnn23)cc1Nc1ccc(-c2cn[nH]c2)nc1` [Example 172, (R)-4-((6-(1H-pyrazol-4-yl)pyridin-3-yl)amino)-6-(3-cyanopyrrolo[1,2-b]pyridazin-7-yl)-N-(2-fluoro-3-hydroxy-3-methylbutyl) nicotinamide], at IRAK4 enzyme, the IC50 is less than 1 nM. Besides, in the assay with TNFα, the EC50 was 76 nM.

The compound `CC(C)(O)[C@H](F)CNC(=O)c1cnc(-c2ccc3cc(C#N)cnn23)cc1NC1CCC(C(=O)N2CCOCC2)CC1` (stereo partly drawn) [Example 173, 6-(3-cyanopyrrolo[1,2-b]pyridazin-7-yl)-N-((R)-2-fluoro-3-hydroxy-3-methylbutyl)-4-(((1r,4R)-4-(morpholine-4-carbonyl)cyclohexyl)amino) nicotinamide] displayed an IC50 against IRAK4 enzyme of 2 nM. In the assay with TNFα, the EC50 is 148 nM.

In turn, `CC(C)(O)[C@H](F)CNC(=O)c1cnc(-c2ccc3cc(C#N)cnn23)cc1NC1CCC(C(=O)N2CC(F)(F)C2)CC1` (stereo partly drawn) [Example 174, 6-(3-cyanopyrrolo[1,2-b]pyridazin-7-yl)-4-(((1r,4R)-4-(3,3-difluoroazetidine-1-carbonyl)cyclohexyl)amino)-N-((R)-2-fluoro-3-hydroxy-3-methylbutyl)nicotinamide] gave a half-inhibitory concentration (IC50) on IRAK4 enzyme of 1 nM. For the same compound, the EC50 with TNFα is 92 nM.

On to `CC(C)(O)[C@H](F)CNC(=O)c1cnc(-c2ccc3cc(C#N)cnn23)cc1Nc1ccc(-c2nc[nH]n2)cc1` [Example 175, (R)-4-((4-(1H-1,2,4-triazol-3-yl)phenyl)amino)-6-(3-cyanopyrrolo[1,2-b]pyridazin-7-yl)-N-(2-fluoro-3-hydroxy-3-methylbutyl)nicotinamide], for which the IC50 on IRAK4 enzyme was less than 1 nM. Also, the EC50 in the assay on TNFα is 20 nM.

`CC(C)(O)[C@H](F)CNC(=O)c1cnc(-c2ccc3cc(C#N)cnn23)cc1Nc1ccc(-n2ncnn2)cc1` [Example 176, (R)-4-((4-(2H-tetrazol-2-yl)phenyl)amino)-6-(3-cyanopyrrolo[1,2-b]pyridazin-7-yl)-N-(2-fluoro-3-hydroxy-3-methylbutyl)nicotinamide] had a concentration for half-maximal inhibition (IC50) against IRAK4 enzyme of 1 nM. In the assay with TNFα, the EC50 is greater than 10000 nM.

The compound `CC(C)(O)[C@H](F)CNC(=O)c1cnc(-c2ccc3cc(C#N)cnn23)cc1Nc1ccc(-c2cc[nH]n2)cc1` [Example 177, (R)-4-((4-(1H-pyrazol-3-yl)phenyl)amino)-6-(3-cyanopyrrolo[1,2-b]pyridazin-7-yl)-N-(2-fluoro-3-hydroxy-3-methylbutyl)nicotinamide] registered an IC50 on IRAK4 enzyme of less than 1 nM. Besides, the concentration giving a half-maximal response (EC50) in the assay on TNFα stood at 29 nM.

On IRAK4 enzyme, `CC(C)(O)[C@H](F)CNC(=O)c1cnc(-c2ccc3cc(C#N)cnn23)cc1Nc1ccc(-c2cn[nH]c2)cc1` [Example 178, (R)-4-((4-(1H-pyrazol-4-yl)phenyl)amino)-6-(3-cyanopyrrolo[1,2-b]pyridazin-7-yl)-N-(2-fluoro-3-hydroxy-3-methylbutyl)nicotinamide] had an IC50 of less than 1 nM. Moreover, in the assay on TNFα, the EC50 was determined as 10 nM.

As to `Cn1cnc(-c2ccc(Nc3cc(-c4ccc5cc(C#N)cnn45)ncc3C(=O)NC[C@@H](F)C(C)(C)O)cc2)n1` [Example 179, (R)-6-(3-cyanopyrrolo[1,2-b]pyridazin-7-yl)-N-(2-fluoro-3-hydroxy-3-methylbutyl)-4-((4-(1-methyl-1H-1,2,4-triazol-3-yl)phenyl)amino) nicotinamide], the IC50 at IRAK4 enzyme turned out to be 1 nM. The half-maximal effective concentration (EC50) in the assay on TNFα was 59 nM.

In the case of `CC(C)(O)[C@H](F)CNC(=O)c1cnc(-c2ccc3cc(C#N)cnn23)cc1Nc1ccc(-n2ccnn2)cc1` [Example 180, (R)-4-((4-(1H-1,2,3-triazol-1-yl)phenyl)amino)-6-(3-cyanopyrrolo[1,2-b]pyridazin-7-yl)-N-(2-fluoro-3-hydroxy-3-methylbutyl)nicotinamide], on IRAK4 enzyme, the 50% inhibitory concentration (IC50) was less than 1 nM. Besides, the EC50 in the assay on TNFα came to 34 nM.

On to `CC(C)(O)[C@H](F)CNC(=O)c1cnc(-c2ccc3cc(C#N)cnn23)cc1NCc1cn[nH]c1` [Example 181, (R)-4-(((1H-pyrazol-4-yl)methyl)amino)-6-(3-cyanopyrrolo[1,2-b]pyridazin-7-yl)-N-(2-fluoro-3-hydroxy-3-methylbutyl)nicotinamide], for which it took 1000 nM to reach half-maximal inhibition against IRAK4 enzyme (IC50). Further, the EC50 in the assay on TNFα was greater than 10000 nM.

For `CNC(=O)C1CCC(Nc2cc(-c3ccc4cc(C#N)cnn34)ncc2C(=O)NC[C@@H](F)C(C)(C)O)CC1` (stereo partly drawn) [Example 182, 6-(3-cyanopyrrolo[1,2-b]pyridazin-7-yl)-N-((R)-2-fluoro-3-hydroxy-3-methylbutyl)-4-(((1r,4R)-4-(methylcarbamoyl)cyclohexyl)amino) nicotinamide], the IC50 on IRAK4 enzyme is 1 nM. Further, the EC50 in the assay on TNFα amounted to 70 nM.

On IRAK4 enzyme, `CC(C)(O)[C@H](F)CNC(=O)c1cnc(-c2ccc3cc(C#N)cnn23)cc1Nc1ccnnc1` [Example 183, (R)-6-(3-cyanopyrrolo[1,2-b]pyridazin-7-yl)-N-(2-fluoro-3-hydroxy-3-methylbutyl)-4-(pyridazin-4-ylamino)nicotinamide] registered a half-maximal inhibitory concentration (IC50) of 6 nM. For the same compound, the EC50 in the assay on TNFα turned out to be 657 nM.

With `Cc1ccc(Nc2cc(-c3ccc4cc(C#N)cnn34)ncc2C(=O)NC[C@@H](F)C(C)(C)O)cn1` [Example 184, (R)-6-(3-cyanopyrrolo[1,2-b]pyridazin-7-yl)-N-(2-fluoro-3-hydroxy-3-methylbutyl)-4-((6-methylpyridin-3-yl)amino)nicotinamide], the concentration for half-maximal inhibition (IC50) against IRAK4 enzyme was less than 1 nM. The EC50 in the assay on TNFα came out at 48 nM.

At IRAK4 enzyme, `CC(C)(O)[C@H](F)CNC(=O)c1cnc(-c2ccc3cc(C#N)cnn23)cc1Nc1cnccn1` [Example 185, (R)-6-(3-cyanopyrrolo[1,2-b]pyridazin-7-yl)-N-(2-fluoro-3-hydroxy-3-methylbutyl)-4-(pyrazin-2-ylamino)nicotinamide] registered an IC50 of less than 1 nM. For the same compound, in the assay with TNFα, the EC50 was determined as 46 nM.

`CC(C)(O)[C@H](F)CNC(=O)c1cnc(-c2ccc3cc(C#N)cnn23)cc1Nc1ccc(C(F)(F)F)nc1` [Example 186, (R)-6-(3-cyanopyrrolo[1,2-b]pyridazin-7-yl)-N-(2-fluoro-3-hydroxy-3-methylbutyl)-4-((6-(trifluoromethyl)pyridin-3-yl)amino)nicotinamide] returned a 50% inhibitory concentration (IC50) against IRAK4 enzyme of 1 nM. For the same compound, the concentration giving a half-maximal response (EC50) in the assay with TNFα turned out to be 145 nM.

On IRAK4 enzyme, `Cc1cc(Nc2cc(-c3ccc4cc(C#N)cnn34)ncc2C(=O)NC[C@@H](F)C(C)(C)O)cnc1F` [Example 187, (R)-6-(3-cyanopyrrolo[1,2-b]pyridazin-7-yl)-N-(2-fluoro-3-hydroxy-3-methylbutyl)-4-((6-fluoro-5-methylpyridin-3-yl)amino) nicotinamide] registered a 50% inhibitory concentration (IC50) of 1 nM. Also, in the assay on TNFα, the concentration giving a half-maximal response (EC50) was determined as 152 nM.

`CC(C)Nc1cc(-c2ccc3cc(C#N)cnn23)ncc1C(=O)N[C@@H]1CC[C@@H](O)C1` [Example 188, 6-(3-cyanopyrrolo[1,2-b]pyridazin-7-yl)-N-((1R,3R)-3-hydroxycyclopentyl)-4-(isopropylamino) nicotinamide] registered a half-maximal inhibitory concentration (IC50) against IRAK4 enzyme of 8 nM. In the assay on TNFα, the EC50 turned out to be 275 nM.

`CC(C)Nc1cc(-c2ccc3cc(C#N)cnn23)ncc1C(=O)N[C@H]1CC[C@H](O)C1` [Example 189, 6-(3-cyanopyrrolo[1,2-b]pyridazin-7-yl)-N-((1S,3S)-3-hydroxycyclopentyl)-4-(isopropylamino) nicotinamide]: half-maximal inhibition against IRAK4 enzyme (IC50) required 6 nM. Also, in the assay with TNFα, the concentration giving a half-maximal response (EC50) turned out to be 136 nM.

With `CC(C)Nc1cc(-c2ccc3cc(C#N)cnn23)ncc1C(=O)N[C@H]1CCC[C@@H](O)C1` [Example 190, 6-(3-cyanopyrrolo[1,2-b]pyridazin-7-yl)-N-((1S,3R)-3-hydroxycyclohexyl)-4-(isopropylamino) nicotinamide], the IC50 at IRAK4 enzyme turned out to be 8 nM. The EC50 with TNFα worked out at 209 nM.

`CC(C)Nc1cc(-c2ccc3cc(C#N)cnn23)ncc1C(=O)N[C@H]1CCC[C@H](O)C1` [Example 191, 6-(3-cyanopyrrolo[1,2-b]pyridazin-7-yl)-N-((1S,3S)-3-hydroxycyclohexyl)-4-(isopropylamino) nicotinamide] returned a concentration for half-maximal inhibition (IC50) on IRAK4 enzyme of 4 nM. Besides, the half-maximal effective concentration (EC50) in the assay with TNFα was 128 nM.

`CC(C)Nc1cc(-c2ccc3cc(C#N)cnn23)ncc1C(=O)N[C@@H]1CCC[C@@H](O)C1` [Example 192, 6-(3-cyanopyrrolo[1,2-b]pyridazin-7-yl)-N-((1R,3R)-3-hydroxycyclohexyl)-4-(isopropylamino) nicotinamide]: the IC50 against IRAK4 enzyme was 5 nM. Moreover, the EC50 in the assay with TNFα is 157 nM.
